Laboratory results published in PMC8618880, “Discovery of GOT1 Inhibitors from a Marine-Derived Aspergillus terreus That Act against Pancreatic Ductal Adenocarcinoma” (Marine Drugs, 2021).

Assays:
SW1990 cells [1] = assay: EDU staining and wound-healing cell migration test; assay type: cell-based, human; details: 0-40 µM, 0-48 h
Experimental: SW1990 cells were seeded in 6-well plates for 24 h. Each well was scratched with a 10 μL pipette tip, and then the plate was washed with PBS to peel off the suspended cells, before adding different concentrations of AH (0–40 μM). Images from the same area of the wound were taken separately under a microscope from 0 to 48 h.

GOT1 [2] = biological target: T1, GOT1 (Homo sapiens, UniProt P17174); assay: Microscale thermophoresis (MST) binding to GOT1; details: read-out: Kd value between AH and GOT1
Experimental: The Monolith NTTM Protein Labeling Kit was used to test the binding capacity of proteins to AH, according to the manufacturer’s instructions. GOT1 was labeled and diluted in a buffer containing 20 mM HEPES (pH 7.5) and Tween-20 (0.5 (v/v)%), and then incubated with different concentration of AH for 10 min at 37 °C. Subsequently, the materials were put into standard capillary tubes and tested for thermophoresis using a Monolith NT.115 instrument (NanoTemper Technologies, München, Germany). The parameters were set to temperature 25 °C, LED power 100%, and laser power 40%, with a 30 s on-time. NTAnalysis software was used to calculate the Kd values.

SW1990 cells [3] = assay: Cell cycle assay, PI staining, flow cytometry; assay type: cell-based, human
Experimental: The phase distribution of DNA content was determined via propidium iodide (PI) staining. Cells were treated with varying doses of AH or vehicle for 48 h, and then the cell pellets were stained in the dark for 30 min with 60 μg/mL RNase A and 30 μg/mL PI. Finally, CellQuest software (Becton-Dickinson, Franklin Lakes, NJ, USA) was used to perform flow cytometric studies. Three separate experiments were used to determine the cell cycle.

SW1990 cells [4] = assay: Intracellular ROS measurement with DCFDA; assay type: cell-based, human; details: AH 10, 20 or 40 µM
From the text: GOT1 is a key enzyme that is involved in the production of Gln-dependent NADPH in PDAC, and catalyzes the reversible conversion of Asp to OAA. To investigate the effects of AH on Gln metabolism, the associated metabolites including OAA and malate (Mal) were detected. […] As excessive reactive oxygen species (ROS) can enhance cellular oxidative stress—resulting in damage to DNA, proteins, or lipids, causing apoptosis or necrosis [29]—we examined the physiological correlation between AH treatment and ROS response. 2,7-Dichlorofluorescein diacetate (DCFDA) was used to measure the intracellular ROS levels.

GOT1 [5] = biological target: T1, GOT1; assay: GOT1 enzymatic activity (inhibition) assay, MDH-coupled, absorbance 340 nm; assay type: biochemical; details: in vitro, read-out: GOT1-inhibitory activity IC50
Experimental: The GOT1 enzymatic activity assay was carried out using a 96-well plate reader as previously reported. The 100 μL reaction system contained 0.1 mg/mL recombinant GOT1 protein, 1 mM α -KG, 1 mM NADH, 4 mM Asp, and 1 U/mL malate dehydrogenase, and measured absorbance at a wavelength of 340 nm. The degree of absorbance decrease was in direct proportion to GOT1 activity. The inhibitory activity in vitro was measured by adding different concentrations of compounds. SigmaPlot with the PlotEnzyme Kinetics Module was used to analyze the enzyme activity.

SW1990 cells [6] = assay: Annexin V-FITC/PI apoptosis assay by flow cytometry; assay type: cell-based, human; details: 48 h
Experimental: The Annexin V–FITC apoptosis kit was purchased from USA BD PharMingen™. In brief, different concentrations of AH were added to the wells for 48 h, and then the cells were harvested, before being resuspended in Annexin-binding buffer and incubated with Annexin V–FITC (10 mg/mL) and PI in the dark for 15 min. Flow cytometry was used to detect the stained cells and analyze the apoptosis immediately.

SW1990 cells [7] = assay: Metabolite abundance and NADPH/NADP+ ratio in cells; assay type: cell-based, human; details: AH 10, 20 or 40 µM
Experimental: SW1990 cells were cultivated to around 50% confluence in DMEM media with 10 mM glucose, 2 mM glutamine, and 5% FBS. A complete medium was prepared prior to two hours of metabolite collection. Quantification kits were used to determine the abundance of Asp (Abcam, #ab102512, Cambridge, UK), Gln (BioVision, #K55, San Francisco, CA, USA), malate (BioVision, #K637, San Francisco, CA, USA), and OAA (Abcam, #ab83428, Cambridge, UK). According to the manufacturer’s instructions, we collected some cells and homogenized them in the buffers provided. The supernatants were centrifuged, and then deproteinized using a 10 K spin column before being analyzed and compared to standard curves.

SW1990 xenografts = assay: SW1990 xenograft in CB-17/SCID mice; assay type: in vivo
Experimental: Animal treatment and experiments were conducted in the Experimental Animal Center. Commercial 8-week-old CB-17/SCID mice (male) were purchased from Huafukang, China. After being resuspended using 0.1 mL of PBS, SW1990 cells (3 × 10^6) were injected subcutaneously into the lower flanks of the mice. When the tumors attained a diameter of ~3 mm, the mice were randomly divided into three groups—2.5 mg/kg, 5 mg/kg, and control—and were subsequently injected intraperitoneally with normal saline or AH every day. A Vernier caliper was used to measure the size of the tumors. After two weeks of therapy, mice were euthanized under deep anesthesia (chloral hydrate, 10%, 10 μL/g), and tumor tissue metabolites were detected using the above method. All animal studies were carried out in accordance with the Huazhong University of Science and Technology’s guidelines.

[8] = MTT cell viability assay, nonmalignant pancreatic duct epithelial cells; assay type: cell-based; details: human, HPDE6C7 nonmalignant pancreatic duct epithelial cells, read-out: cytotoxicity IC50
Experimental: (§1) Pancreas (SW1990, AsPC-1, PANC-1), colorectal (HCT116), breast (HCC1806, MM231, MM453), and ovarian cancer cells (ES2), along with a nonmalignant human pancreatic duct epithelial cell line (HDPE6C7), were obtained from ATCC, and were cultured in 1640 medium or Dulbecco’s modified Eagle medium (DMEM) supplemented with 10% (v/v) fetal bovine serum (FBS), 100 μg/mL streptomycin, and 100 U/mL penicillin. Cells were maintained in a humidified atmosphere of 5% CO2 at 37 °C. MTT (3-(4,5-dimethylthiazol-2-yl)-2,5-diphenyl tetrazolium bromide) assay was used to assess the cell viability. Briefly, cells were seeded in 96-well plates at a density of 5 × 10^3 cells per well for 24 h. Then, the medium was removed, and the cells were treated with different concentrations (0.1–100 μM) of AH, with DMSO as a vehicle control. After incubation for 48 h, 100 μL of MTT solution (2 mg/mL) was added to each well, and the wells were incubated at 37 °C for another 4 h. The formed formazan crystals were dissolved in DMSO (200 μL/well) and shaken for 5 min. Then, the absorbance of the solution was measured at 490 nm with a microplate reader. IC50 values were interpolated from the resulting dose-dependent curves using GraphPad Prism 7.0. The reported IC50 values are the average of three independent experiments, each consisting of six replicates per concentration level (overall n = 18).

[9] = system: SW1990, PANC-1, and AsPC-1 cell lines; assay: MTT cell viability assay, PDAC cell lines; assay type: cell-based; details: Homo sapiens, 48 h, read-out: cytotoxicity IC50
Experimental: as §1

[10] = 2.5 and 5 mg/kg/d intraperitoneal, 14 days
[11] = tumor tissue after 14 days treatment

T1 sequence (P17174 whole entry): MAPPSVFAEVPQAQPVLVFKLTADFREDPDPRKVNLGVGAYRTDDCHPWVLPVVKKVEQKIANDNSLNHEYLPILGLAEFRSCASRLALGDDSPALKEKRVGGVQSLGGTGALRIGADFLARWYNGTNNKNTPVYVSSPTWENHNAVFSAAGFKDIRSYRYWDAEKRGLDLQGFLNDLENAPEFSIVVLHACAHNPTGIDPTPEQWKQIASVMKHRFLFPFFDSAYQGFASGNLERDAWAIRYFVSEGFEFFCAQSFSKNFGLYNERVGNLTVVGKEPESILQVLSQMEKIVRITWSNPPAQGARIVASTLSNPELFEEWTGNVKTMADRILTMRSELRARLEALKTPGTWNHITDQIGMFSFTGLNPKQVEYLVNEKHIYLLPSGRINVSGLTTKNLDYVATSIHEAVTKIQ

In the case of `CC(C)=CCc1cc(/C=C2\OC(=O)C(c3ccc(O)c(CC=C(C)C)c3)=C2O)ccc1O` [Compound 6, aspulvinone H], the “proliferation and migration (EDU staining, wound healing)” value (SW1990 cells [1]) is reported as “anti-proliferative effect”, the Kd (GOT1 [2]) is reported as 2.14 ± 0.47 µM and the “proportion of S-phase cells” value (SW1990 cells [3]; SW1990, 10 µM) is reported as 32.5%. For the same molecule, the “proportion of cells in G0/G1 phase” value (SW1990 cells [3]; SW1990, 10 µM) was 59.4%, the “proportion of S-phase cells” value (SW1990 cells [3]; SW1990, 20 µM) was 38.6% and the “proportion of cells in G0/G1 phase” value (SW1990 cells [3]; SW1990, 20 µM) was 48.6%. For the same molecule, the “proportion of S-phase cells” value (SW1990 cells [3]; SW1990, 40 µM) was 43.9%, the “proportion of cells in G0/G1 phase” value (SW1990 cells [3]; SW1990, 40 µM) was 43.5% and the “change in G2/M phase” value (SW1990 cells [3]; SW1990, high-dose AH) was “only a slight increase”. For the same molecule, the “intracellular ROS level” value (SW1990 cells [4]) was “positively correlated”, the IC50 (GOT1 [5]) was 5.91 ± 0.04 µM and the apoptosis induction rate (SW1990 cells [6]; SW1990, 10 µM) was 9.5%. For the same molecule, the apoptosis induction rate (SW1990 cells [6]; SW1990, 40 µM) was 80.2%, the “content of Asp” value (SW1990 cells [7]) was “increasing” and the “content of Mal” value (SW1990 cells [7]) was “reduced”. For the same molecule, the “content of OAA” value (SW1990 cells [7]) was “reduced”, the “ratio of NADPH/NADP+” value (SW1990 cells [7]) was “remarkably decreased” and the “body weight of the mice” value (SW1990 xenografts; [10]) was “no significant changes”. The “histomorphology of the mice” value (SW1990 xenografts; [10]) was “no significant changes”, the “tumor volume vs control group” value (SW1990 xenografts; 2.5 and 5 mg/kg/d intraperitoneal, 14 days, CB-17/SCID mice) was “significantly smaller” and the “tumor tissue Asp” value (SW1990 xenografts; [11]) was “increased”. For the same molecule, the “tumor tissue Gln” value (SW1990 xenografts; [11]) was “increased”, the “tumor tissue Mal” value (SW1990 xenografts; [11]) was “decreased” and the “tumor tissue OAA” value (SW1990 xenografts; [11]) was “decreased”. The “tumor tissue proportion of NADPH/NADP+” value (SW1990 xenografts; [11]) was “decrease”, the IC50 at 48 h [8] was over 100 µM and the IC50 [9] was 6.32 to 10.5 µM.
`COC(=O)[C@]1(Cc2ccc(O)c(CC=C(C)C)c2)OC(=O)C(O)=C1c1ccc(O)c(CC=C(C)C)c1` [Compound 12, (+)-3′,3′-di-(dimethylallyl)-butyrolactone II] gave an IC50 (GOT1 [5]) of 26.38 ± 0.1 µM.
With `CO[C@H]1OC(=O)C(c2ccc(O)cc2)=C1Cc1ccc(O)c(CC=C(C)C)c1` [Compound 5, (+)-asperteretone B] the IC50 (GOT1 [5]) was 19.16 ± 0.15 µM.
